A word on the MIC50: it is an inhibitory concentration at the 50% level, which refers to growth in some studies and to a panel of isolates in others.

From ChEMBL document CHEMBL5370634, “Synthesis and Antifungal Evaluation of New Azole Derivatives against Candida albicans” (ACS Med Chem Lett, 2023) come the findings set out here.

In brackets after ≈: the same amount, converted by molar mass. Some results are limits rather than exact numbers.

In experiment [1] the test system is Candida albicans. Nature of the experiment: Antifungal activity against Candida albicans SC5314 assessed as fractional inhibitory concentration index incubated for 24 hrs in presence of fluconazole by microdilution method. The format is functional.
Experiment [2] relates to Candida albicans. Briefly: Antifungal activity against Candida albicans SC5314FR incubated for 24 hrs by microdilution method. Type of experiment: functional. A general note: Dilution methods test growth across graded concentrations, often in twofold steps.
The subject of experiment [3] is Candida albicans. Briefly: Antifungal activity against Candida albicans SC5314 incubated for 24 hrs by microdilution method. The format is functional.
The subject of experiment [4] is Candida albicans. Briefly: Antifungal activity against Candida albicans SC5314 incubated for 24 hrs in presence of fluconazole by microdilution method. The format is functional.
Experiment [5] relates to Candida albicans. Briefly: Antifungal activity against Candida albicans SC5314FR assessed as fractional inhibitory concentration index incubated for 24 hrs in presence of fluconazole by microdilution method. Type of experiment: functional.
Experiment [6] relates to Candida albicans. Briefly: Antifungal activity against Candida albicans SC5314FR incubated for 24 hrs in presence of fluconazole by microdilution method. The format is functional, SC5314.

For `CC(=O)N1CCN(c2ccc(OCCN(CC(O)(Cn3cncn3)c3ccc(F)cc3F)C(=O)c3cc(F)c(F)c(F)c3F)cc2)CC1` (stereo unspecified), the entries for the “fractional inhibitory concentration index (FICI)” value with Candida albicans [1] and in the experiment on Candida albicans [5] were 0.53 and 2, respectively. Further, the MIC50 in the experiment with Candida albicans [2] was above 200 µg/mL; with Candida albicans [3] it was 0.31 µg/mL (≈ 0.458 µM); in the experiment on Candida albicans [4], 0.14 µg/mL; in the experiment on Candida albicans [6], above 200 µg/mL.

For `COc1ccc(S(=O)(=O)N(CCOc2ccc(N3CCN(C(C)=O)CC3)cc2)CC(O)(Cn2cncn2)c2ccc(F)cc2F)cc1` (stereo unspecified), the figures for the “fractional inhibitory concentration index (FICI)” value in the experiment on Candida albicans [1] and in the experiment with Candida albicans [5] were 0.5 and 2, respectively. Also, the MIC50 is above 200 µg/mL against Candida albicans [2], 7.27 µg/mL (≈ 10.8 µM) in the experiment with Candida albicans [3], 0.72 µg/mL in the experiment with Candida albicans [4] and above 200 µg/mL in the experiment on Candida albicans [6].

`CC(=O)N1CCN(c2ccc(OCCN(CC(O)(Cn3cncn3)c3ccc(F)cc3F)S(=O)(=O)CCCCl)cc2)CC1` (stereo unspecified): the “fractional inhibitory concentration index (FICI)” value was 0.33 in the experiment on Candida albicans [1] and 2 in the experiment with Candida albicans [5]. The MIC50 against Candida albicans [2] is above 200 µg/mL; with Candida albicans [3], 0.66 µg/mL (≈ 1.03 µM); in the experiment with Candida albicans [4], 0.16 µg/mL; in the experiment with Candida albicans [6] it was above 200 µg/mL.

`CC(=O)N1CCN(c2ccc(OCCN(Cc3ccc([N+](=O)[O-])cc3)CC(O)(Cn3cncn3)c3ccc(F)cc3F)cc2)CC1` (stereo unspecified): the “fractional inhibitory concentration index (FICI)” value in the experiment on Candida albicans [1] was 0.03; with Candida albicans [5] it was 2. In addition, the MIC50 with Candida albicans [2] was above 200 µg/mL; in the experiment on Candida albicans [3], 0.08 µg/mL (≈ 0.126 µM); in the experiment on Candida albicans [4], 0.002 µg/mL; in the experiment on Candida albicans [6], above 200 µg/mL.

In the case of `CC(=O)N1CCN(c2ccc(OCCN(CC(O)(Cn3cncn3)c3ccc(F)cc3F)C(=O)c3c(Cl)cccc3Cl)cc2)CC1` (stereo unspecified), the “fractional inhibitory concentration index (FICI)” value in the experiment with Candida albicans [1] came to 0.4; with Candida albicans [5], 2. For the same compound, the MIC50 against Candida albicans [2] is above 200 µg/mL; against Candida albicans [3], 6.25 µg/mL (≈ 9.28 µM); in the experiment on Candida albicans [4], 0.56 µg/mL; in the experiment on Candida albicans [6], above 200 µg/mL.

With `COc1ccc(C(=O)CN(CCOc2ccc(N3CCN(C(C)=O)CC3)cc2)CC(O)(Cn2cncn2)c2ccc(F)cc2F)cc1OC` (stereo unspecified), the “fractional inhibitory concentration index (FICI)” value in the experiment with Candida albicans [1] stood at 0.71; with Candida albicans [5] it was 2. Further, the MIC50 was above 200 µg/mL in the experiment with Candida albicans [2], 35 µg/mL (≈ 51.5 µM) against Candida albicans [3], 1.22 µg/mL in the experiment with Candida albicans [4] and above 200 µg/mL with Candida albicans [6].

As to `CC(=O)N1CCN(c2ccc(OCCN(CC(O)(Cn3cncn3)c3ccc(F)cc3F)S(=O)(=O)c3ccc(Br)cc3)cc2)CC1` (stereo unspecified), the figures for the “fractional inhibitory concentration index (FICI)” value in the experiment with Candida albicans [1] and with Candida albicans [5] were 0.22 and 2, respectively. In addition, the MIC50 against Candida albicans [2] is above 200 µg/mL; in the experiment with Candida albicans [3] it was 0.2 µg/mL (≈ 0.278 µM); in the experiment on Candida albicans [4] it was 0.04 µg/mL; with Candida albicans [6], above 200 µg/mL.

On to `C=CCN(CCOc1ccc(N2CCN(C(C)=O)CC2)cc1)CC(O)(Cn1cncn1)c1ccc(F)cc1F` (stereo unspecified), for which the entries for the “fractional inhibitory concentration index (FICI)” value in the experiment on Candida albicans [1] and with Candida albicans [5] were 1.51 and 1.07, respectively. For the same compound, the MIC50 was found to be 115 µg/mL (≈ 213 µM) in the experiment with Candida albicans [2], 7.13 µg/mL (≈ 13.2 µM) against Candida albicans [3], 2.17 µg/mL with Candida albicans [4] and 95.7 µg/mL with Candida albicans [6].

On to `CC(=O)N1CCN(c2ccc(OCCN(CC(O)(Cn3cncn3)c3ccc(F)cc3F)S(=O)(=O)c3ccc(F)cc3)cc2)CC1` (stereo unspecified), for which the “fractional inhibitory concentration index (FICI)” value turned out to be 1.69 in the experiment with Candida albicans [1] and 2 in the experiment with Candida albicans [5]. In addition, the MIC50 in the experiment on Candida albicans [2] was above 200 µg/mL; against Candida albicans [3] it was 0.1 µg/mL (≈ 0.152 µM); in the experiment with Candida albicans [4], 0.16 µg/mL; in the experiment on Candida albicans [6] it was above 200 µg/mL.

Turning to `CC(=O)N1CCN(c2ccc(OCCN(Cc3ccc(Br)cc3)CC(O)(Cn3cncn3)c3ccc(F)cc3F)cc2)CC1` (stereo unspecified), the figures for the “fractional inhibitory concentration index (FICI)” value with Candida albicans [1] and in the experiment with Candida albicans [5] were 1.58 and 2, respectively. The MIC50 against Candida albicans [2] was above 200 µg/mL; against Candida albicans [3], 5.71 µg/mL (≈ 8.53 µM); in the experiment with Candida albicans [4], 2.17 µg/mL; with Candida albicans [6], above 200 µg/mL.

For `CC(=O)N1CCN(c2ccc(OCCN(Cc3ccc(F)c(F)c3)CC(O)(Cn3cncn3)c3ccc(F)cc3F)cc2)CC1` (stereo unspecified), the “fractional inhibitory concentration index (FICI)” value in the experiment with Candida albicans [1] worked out at 4.61; with Candida albicans [5], 2. In addition, the MIC50 with Candida albicans [2] is above 200 µg/mL; in the experiment on Candida albicans [3], 4.31 µg/mL (≈ 6.88 µM); with Candida albicans [4] it was 5.85 µg/mL; in the experiment with Candida albicans [6], above 200 µg/mL.

Regarding `CC(=O)N1CCN(c2ccc(OCCN(CC(O)(Cn3cncn3)c3ccc(F)cc3F)C(=O)CCCl)cc2)CC1` (stereo unspecified), the “fractional inhibitory concentration index (FICI)” value in the experiment with Candida albicans [1] was 1.11; in the experiment on Candida albicans [5], 0.95. Moreover, the MIC50 was above 200 µg/mL in the experiment with Candida albicans [2], 19.4 µg/mL (≈ 32.9 µM) against Candida albicans [3], 1.83 µg/mL with Candida albicans [4] and 190 µg/mL in the experiment on Candida albicans [6].

For the compound `CC(=O)N1CCN(c2ccc(OCCN(Cc3ccc(C(F)(F)F)cc3)CC(O)(Cn3cncn3)c3ccc(F)cc3F)cc2)CC1` (stereo unspecified), the “fractional inhibitory concentration index (FICI)” value in the experiment with Candida albicans [1] was determined as 1.94; in the experiment with Candida albicans [5], 2. The MIC50 with Candida albicans [2] was above 200 µg/mL; in the experiment with Candida albicans [3] it was 1.83 µg/mL (≈ 2.78 µM); in the experiment on Candida albicans [4] it was 1.76 µg/mL; with Candida albicans [6], above 200 µg/mL.

Regarding `C#CCN(CCOc1ccc(N2CCN(C(C)=O)CC2)cc1)CC(O)(Cn1cncn1)c1ccc(F)cc1F` (stereo unspecified), the entries for the “fractional inhibitory concentration index (FICI)” value in the experiment on Candida albicans [1] and in the experiment with Candida albicans [5] were 2.27 and 2, respectively. In addition, the MIC50 in the experiment on Candida albicans [2] was above 200 µg/mL; with Candida albicans [3], 9.31 µg/mL (≈ 17.3 µM); in the experiment on Candida albicans [4] it was 3.42 µg/mL; in the experiment on Candida albicans [6] it was above 200 µg/mL.

Consider `CC(=O)N1CCN(c2ccc(OCCN(CC(O)(Cn3cncn3)c3ccc(F)cc3F)C(=O)c3ccccc3Cl)cc2)CC1` (stereo unspecified), for which the “fractional inhibitory concentration index (FICI)” value with Candida albicans [1] turned out to be 1.61; in the experiment with Candida albicans [5], 2. Further, the MIC50 is above 200 µg/mL in the experiment with Candida albicans [2], 11.3 µg/mL (≈ 17.8 µM) against Candida albicans [3], 2.5 µg/mL in the experiment on Candida albicans [4] and above 200 µg/mL with Candida albicans [6].

Regarding `CC(=O)N1CCN(c2ccc(OCCN(Cc3ccc(Cl)cc3)CC(O)(Cn3cncn3)c3ccc(F)cc3F)cc2)CC1` (stereo unspecified), the “fractional inhibitory concentration index (FICI)” value in the experiment with Candida albicans [1] is 3.88; in the experiment with Candida albicans [5], 2. Also, the MIC50 is above 200 µg/mL with Candida albicans [2], 9.32 µg/mL (≈ 14.9 µM) against Candida albicans [3], 5.85 µg/mL with Candida albicans [4] and above 200 µg/mL with Candida albicans [6].

As for `CC(=O)N1CCN(c2ccc(OCCN(CC(O)(Cn3cncn3)c3ccc(F)cc3F)S(=O)(=O)c3ccc(OC(F)(F)F)cc3)cc2)CC1` (stereo unspecified), the “fractional inhibitory concentration index (FICI)” value with Candida albicans [1] was 0.45; in the experiment on Candida albicans [5], 2. In addition, the MIC50 is above 200 µg/mL against Candida albicans [2], 0.84 µg/mL (≈ 1.16 µM) in the experiment on Candida albicans [3], 0.26 µg/mL in the experiment with Candida albicans [4] and above 200 µg/mL with Candida albicans [6].

As to `CC(=O)N1CCN(c2ccc(OCCN(Cc3ccc(C#N)cc3)CC(O)(Cn3cncn3)c3ccc(F)cc3F)cc2)CC1` (stereo unspecified), the figures for the “fractional inhibitory concentration index (FICI)” value with Candida albicans [1] and in the experiment with Candida albicans [5] were 1.08 and 2, respectively. Also, the MIC50 against Candida albicans [2] is above 200 µg/mL; with Candida albicans [3], 0.99 µg/mL (≈ 1.61 µM); with Candida albicans [4], 0.68 µg/mL; with Candida albicans [6], above 200 µg/mL.

Turning to `CC(=O)N1CCN(c2ccc(OCCN(CC(O)(Cn3cncn3)c3ccc(F)cc3F)S(=O)(=O)c3ccc(Cl)cc3)cc2)CC1` (stereo unspecified), the “fractional inhibitory concentration index (FICI)” value in the experiment with Candida albicans [1] was determined as 2.61; in the experiment with Candida albicans [5], 13.42. Also, the MIC50 is 33.2 µg/mL (≈ 49.2 µM) against Candida albicans [2], 8.49 µg/mL (≈ 12.6 µM) in the experiment on Candida albicans [3], 3.88 µg/mL in the experiment with Candida albicans [4] and above 200 µg/mL in the experiment on Candida albicans [6].

As to `CC(=O)N1CCN(c2ccc(OCCN(CC(O)(Cn3cncn3)c3ccc(F)cc3F)C(=O)c3ccc(Cl)cc3)cc2)CC1` (stereo unspecified), the “fractional inhibitory concentration index (FICI)” value with Candida albicans [1] is 0.64; with Candida albicans [5], 0.73. Also, the MIC50 in the experiment on Candida albicans [2] was above 200 µg/mL; against Candida albicans [3], 6.79 µg/mL (≈ 10.6 µM); in the experiment on Candida albicans [4] it was 0.91 µg/mL; in the experiment with Candida albicans [6] it was 147 µg/mL.

`CC(=O)N1CCN(c2ccc(OCCN(CC(O)(Cn3cncn3)c3ccc(F)cc3F)C(=O)c3ccc(C(F)(F)F)cc3)cc2)CC1` (stereo unspecified): the results for the “fractional inhibitory concentration index (FICI)” value in the experiment with Candida albicans [1] and in the experiment with Candida albicans [5] were 2.03 and 2, respectively. The MIC50 against Candida albicans [2] is above 200 µg/mL; in the experiment on Candida albicans [3], 17.9 µg/mL (≈ 26.6 µM); with Candida albicans [4] it was 3.32 µg/mL; with Candida albicans [6], above 200 µg/mL.
